Patent US10508113B2, “Inhibitors of tyrosine kinase 2 mediated signaling” (AbbVie Inc., priority 2018, dated 2019)

Biological target: T1, Tyk2/Jak2 (Homo sapiens, UniProt P29597)
T1 construct: Cell Type: Frozen primary phytohemagglutinin (PHA) T-Blasts; endogenous in cells; host or cells: primary PHA T-blasts
Test: Tyk2 (Tyk2/Jak2 PSTAT4 T-Blast) alpha screen assay: inhibition of IL-12 induced phosphorylation of STAT4 in T-blast cells
Assay type: cell-based
Details: IL-12 induced pSTAT4, T-blast cells
Procedure: 1. TYK2 (TYK2/JAK2 PSTAT4 T-BLAST) ALPHA SCREEN ASSAY
IL-12 is known to transduce its signal through IL-12 receptor via Jak2 and/or Tyk2. For that reason, the activity against Tyk2/Jak2 was measured by determining the inhibition of IL-12 induced phosphorylation of STAT4 in T-blast cells. […] See, e.g., Sohn et al., J. Immunology (2013) 2205-2216.
Cell Type: Frozen primary phytohemagglutinin (PHA) T-Blasts; Culture Medium: Roswell Park Memorial Institute (RPMI) 1640 Medium, 10% heat-inactivated fetal bovine serum (FBS), 1% penicillin/streptomycin (Pen-Strep), 10 mM hydroxyethyl piperazineethanesulfonic acid (HEPES), 10 ng/mL recombinant human interleukin-12 (rhIL-12); Assay Medium: Hank's Balanced Salt Solution (HBSS), no phenol red.
i. Automated 11-point 1:3 dilution curve: 2.5 mM top concentration dispensed in column 1 of a Corning 96-well polypropylene plate. Dimethyl sulfoxide (DMSO) was added to column 12 for high and low controls. Compounds were serially diluted 1:3 by adding 20 uL stock to 40 μL DMSO across the plate via Hamilton Microlab Star instrument.
ii. Media dilution of compounds: Serially diluted compounds were diluted 1:50 in assay medium by adding 4 μL compound to 196 μL assay medium in a Corning 96-well polypropylene plate (now 2% DMSO).
iii. […]
Primary T-Blasts from overnight culture were centrifuged, washed once in assay medium, and pelleted. T-Blasts were counted and resuspended at 12,500,000 cells/mL. […]
Phosphorylated Signal Transducer and Activator of Transcription 4 (pSTAT4) was quantified using the PerkinElmer SureFire Ultra pSTAT4 (Tyrosine 693) Assay. […]
Make master mix of Protein A donor beads using the following volumes per well: 5.88 μL Dilution Buffer and 0.12 μL […]. […] Read plate on Perkin Elmer Envision. […]
Certain compounds listed in Table C were tested for Tyk2 activity following the aforementioned Tyk2 (Tyk2/Jak2 PSTAT4 T-Blast) alpha screen assay and Jak2 (PTATS UT7) alpha screen assay. […] Selectivity for Tyk2 over Jak1, and Tyk2 over Jak2, are calculated from the tabulated activity data.

T1 sequence (P29597 whole entry, other chains not shown): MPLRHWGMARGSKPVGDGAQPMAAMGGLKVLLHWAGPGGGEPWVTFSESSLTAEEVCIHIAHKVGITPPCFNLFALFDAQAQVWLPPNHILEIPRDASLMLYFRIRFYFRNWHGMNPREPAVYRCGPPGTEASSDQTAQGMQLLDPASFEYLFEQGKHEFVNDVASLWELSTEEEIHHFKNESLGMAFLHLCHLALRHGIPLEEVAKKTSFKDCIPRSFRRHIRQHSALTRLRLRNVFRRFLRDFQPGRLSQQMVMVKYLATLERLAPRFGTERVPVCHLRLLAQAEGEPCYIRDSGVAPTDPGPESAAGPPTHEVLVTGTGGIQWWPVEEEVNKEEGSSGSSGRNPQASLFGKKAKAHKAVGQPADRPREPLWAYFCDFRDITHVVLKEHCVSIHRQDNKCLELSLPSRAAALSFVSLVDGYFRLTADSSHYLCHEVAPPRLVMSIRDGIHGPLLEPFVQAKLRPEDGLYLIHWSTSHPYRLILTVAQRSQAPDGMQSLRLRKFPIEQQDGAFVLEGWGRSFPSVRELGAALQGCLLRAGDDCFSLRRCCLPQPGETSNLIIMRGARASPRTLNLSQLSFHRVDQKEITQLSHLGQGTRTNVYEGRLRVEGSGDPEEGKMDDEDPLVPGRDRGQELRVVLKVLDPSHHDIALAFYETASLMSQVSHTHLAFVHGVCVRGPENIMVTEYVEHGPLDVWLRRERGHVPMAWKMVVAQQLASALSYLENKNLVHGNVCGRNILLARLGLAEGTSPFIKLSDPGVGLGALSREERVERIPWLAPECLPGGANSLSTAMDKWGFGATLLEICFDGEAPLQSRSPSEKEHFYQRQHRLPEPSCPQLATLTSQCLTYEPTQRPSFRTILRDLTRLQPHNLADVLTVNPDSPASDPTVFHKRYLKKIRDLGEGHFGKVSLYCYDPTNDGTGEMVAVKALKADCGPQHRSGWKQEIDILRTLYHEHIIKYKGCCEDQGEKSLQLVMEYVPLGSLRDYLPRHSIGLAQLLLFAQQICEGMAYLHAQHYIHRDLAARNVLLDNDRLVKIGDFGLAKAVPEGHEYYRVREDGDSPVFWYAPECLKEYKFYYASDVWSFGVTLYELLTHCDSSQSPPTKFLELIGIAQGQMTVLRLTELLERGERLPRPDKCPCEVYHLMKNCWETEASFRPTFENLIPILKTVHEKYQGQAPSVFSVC

SMILES: CC(=O)Nc1cc2c(-c3cccc([C@@]4(CO)CCOC4)n3)c[nH]c2cn1 [21-NH (R-isomer)]
- EC50: 540 nM
